≈ marks a conversion by molar mass, not a printed value.
How the values were obtained:
[1] = test system: Streptococcus pneumoniae ATCC 49619; test: MIC, broth macrodilution (CLSI), S. pneumoniae ATCC 49619; type: cell-based
Protocol: (§1) All compounds were tested against American Type Culture Collection (ATCC) reference strains as well as clinical isolates from the Canadian Intensive Care Unit (CAN-ICU) study (Zhanel, et al., 2008). […] Antibacterial activity against Gram-positive and Gram-negative microorganisms was performed via broth macrodilution tests using CLSI methodology (Clinical and Laboratory Standards Institute, 2006). The minimum inhibitory concentration (MIC) in μg/mL of the aminoglycoside-derived amphiphilic polycarbamates and polyethers were determined using established methods (Clinical and Laboratory Standards Institute, 2006) and are shown in Tables 1 and 2, respectively.

[2] = test system: Acinetobacter baumanni (CAN-ICU 63169); test: MIC, broth macrodilution (CLSI), A. baumannii; type: cell-based; settings: A. baumannii CAN-ICU 63169
Protocol: as §1

[3] = test system: S. aureus ATCC 29213; test: MIC, broth macrodilution (CLSI), S. aureus ATCC 29213; type: cell-based, Staphylococcus aureus
Protocol: as §1

[4] = test system: E. coli ATCC 25922; test: MIC, broth macrodilution (CLSI), E. coli ATCC 25922; type: cell-based
Protocol: as §1

[5] = test system: S. pneumoniae ATCC 13883; test: MIC, broth macrodilution (CLSI), S. pneumoniae ATCC 13883; type: cell-based
Protocol: as §1

[6] = test system: P. aeruginosa (Gent-R) CAN-ICU 62308; test: MIC, broth macrodilution (CLSI), P. aeruginosa CAN-ICU 62308; type: cell-based, Pseudomonas aeruginosa
Protocol: as §1

[7] = test system: E. coli (Gentamicin-resistant) CAN-ICU 61714; test: MIC, broth macrodilution (CLSI), gentamicin-resistant E. coli; type: cell-based; settings: for Minimal Inhibitory Concentration (MIC): footnote ATCC 6174 (gentamicin resistant)
Protocol: as §1

[8] = test system: Stenotrophomonas maltophilia (CAN-ICU 62585); test: MIC, broth macrodilution (CLSI), S. maltophilia; type: cell-based; settings: S. maltophilia, footnote CAN-ICU 62584
Protocol: as §1

[9] = test system: S. epidermidis ATCC 14990; test: MIC, broth macrodilution (CLSI), S. epidermidis; type: cell-based, Staphylococcus epidermidis; settings: for Minimal Inhibitory Concentration (MIC): footnote ATCC 1490
Protocol: as §1

[10] = test system: methicillin-resistant Staphylococcus epidermidis (MRSE) CAN-ICU 61589; test: MIC, broth macrodilution (CLSI), MRSE; type: cell-based; settings: methicillin-resistant S. epidermidis, footnote (ATCC 14990)
Protocol: as §1

[11] = test system: Pseudomonas aeruginosa ATCC 27853; test: MIC, broth macrodilution (CLSI), P. aeruginosa ATCC 27853; type: cell-based
Protocol: as §1

[12] = test system: methicillin-resistant Staphylococcus aureus (MRSA) ATCC 33592; test: MIC, broth macrodilution (CLSI), MRSA ATCC 33592; type: cell-based; settings: MRSA, methicillin-resistant S. aureus ATCC 33592
Protocol: as §1

[13] = test system: E. coli (Amikacin MIC 32) CAN-ICU 63074; test: MIC, broth macrodilution (CLSI), E. coli CAN-ICU 63074; type: cell-based
Protocol: as §1

SMILES	Minimal Inhibitory Concentration (MIC) [1] [µg/mL]	Minimal Inhibitory Concentration (MIC) [2] [µg/mL]	Minimal Inhibitory Concentration (MIC) [3] [µg/mL]	Minimal Inhibitory Concentration (MIC) [4] [µg/mL]	Minimal Inhibitory Concentration (MIC) [5] [µg/mL]	Minimal Inhibitory Concentration (MIC) [6] [µg/mL]	Minimal Inhibitory Concentration (MIC) [7] [µg/mL]	Minimal Inhibitory Concentration (MIC) [8] [µg/mL]	Minimal Inhibitory Concentration (MIC) [9] [µg/mL]	Minimal Inhibitory Concentration (MIC) [10] [µg/mL]	Minimal Inhibitory Concentration (MIC) [11] [µg/mL]	Minimal Inhibitory Concentration (MIC) [12] [µg/mL]	Minimal Inhibitory Concentration (MIC) [13] [µg/mL]	further results
NCC[C@H](O)C(=O)N[C@@H]1C[C@H](N)[C@@H](O[C@H]2O[C@H](CN)[C@@H](O)[C@H](O)[C@H]2O)[C@H](O)[C@H]1O[C@H]1O[C@H](CO)[C@@H](O)[C@H](N)[C@H]1O [Amikacin, reference compound]	–	–	–	–	–	–	–	–	–	–	–	–	–	MIC ([1]; Streptococcus pneumoniae, ATCC49619, read-out: Minimal Inhibitory Concentration (MIC)): 8 µg/mL (≈ 13.7 µM); MIC ([2]; read-out: Minimal Inhibitory Concentration (MIC)): 128 µg/mL (≈ 219 µM); MIC ([3]; Staphylococcus aureus, ATCC29213, read-out: Minimal Inhibitory Concentration (MIC)): 4 µg/mL (≈ 6.83 µM); MIC ([4]; Escherichia coli, ATCC25922, read-out: Minimal Inhibitory Concentration (MIC)): 4 µg/mL (≈ 6.83 µM); MIC ([5]; Streptococcus pneumoniae, ATCC13883, read-out: Minimal Inhibitory Concentration (MIC)): 0.5 µg/mL (≈ 0.854 µM); MIC ([6]; Pseudomonas aeruginosa, read-out: Minimal Inhibitory Concentration (MIC)): 128 µg/mL (≈ 219 µM); MIC ([7]; Escherichia coli, ATCC6174, footnote ATCC 6174 (gentamicin resistant), read-out: Minimal Inhibitory Concentration (MIC)): 2 µg/mL (≈ 3.42 µM); MIC ([8]; Stenotrophomonas maltophilia, read-out: Minimal Inhibitory Concentration (MIC)): > 512 µg/mL; MIC ([9]; Staphylococcus epidermidis, ATCC 1490 / ATCC 14990, footnote ATCC 1490, read-out: Minimal Inhibitory Concentration (MIC)): 1 µg/mL (≈ 1.71 µM); MIC ([10]; Staphylococcus epidermidis, ATCC 14990 / MRSE, read-out: Minimal Inhibitory Concentration (MIC)): 2 µg/mL (≈ 3.42 µM); MIC ([11]; Pseudomonas aeruginosa, ATCC27853, read-out: Minimal Inhibitory Concentration (MIC)): 4 µg/mL (≈ 6.83 µM); MIC ([12]; Staphylococcus aureus, read-out: Minimal Inhibitory Concentration (MIC)): 8 µg/mL (≈ 13.7 µM); MIC ([13]; Escherichia coli, read-out: Minimal Inhibitory Concentration (MIC)): 32 µg/mL (≈ 54.6 µM)
NCC1OC(OC2C(N)CC(N)C(OC(=O)Nc3ccc(Cl)cc3)C2OC2OC(COC(=O)Nc3ccc(Cl)cc3)C(OC3OC(CN)C(OC(=O)Nc4ccc(Cl)cc4)C(OC(=O)Nc4ccc(Cl)cc4)C3N)C2OC(=O)Nc2ccc(Cl)cc2)C(N)C(OC(=O)Nc2ccc(Cl)cc2)C1OC(=O)Nc1ccc(Cl)cc1.O=C(O)C(F)(F)F.O=C(O)C(F)(F)F.O=C(O)C(F)(F)F.O=C(O)C(F)(F)F.O=C(O)C(F)(F)F.O=C(O)C(F)(F)F (stereo not drawn) [Compound 2]	128	>256	64	>256	256	256	>256	128	16	32	>256	64	256	–
CCCCCCNC(=O)OCC1OC(OC2C(OC(=O)NCCCCCC)C(N)CC(N)C2OC2OC(CN)C(OC(=O)NCCCCCC)C(OC(=O)NCCCCCC)C2N)C(OC(=O)NCCCCCC)C1OC1OC(CN)C(OC(=O)NCCCCCC)C(OC(=O)NCCCCCC)C1N.O=C(O)C(F)(F)F.O=C(O)C(F)(F)F.O=C(O)C(F)(F)F.O=C(O)C(F)(F)F.O=C(O)C(F)(F)F.O=C(O)C(F)(F)F (stereo not drawn) [Compound 3]	8	>256	2	8	4	256	8	>256	1	2	>256	256	32	–
CN(C)c1ccc(NC(=O)OCC2OC(OC3C(OC(=O)Nc4ccc(N(C)C)cc4)C(N)CC(N)C3OC3OC(CN)C(OC(=O)Nc4ccc(N(C)C)cc4)C(OC(=O)Nc4ccc(N(C)C)cc4)C3N)C(OC(=O)Nc3ccc(N(C)C)cc3)C2OC2OC(CN)C(OC(=O)Nc3ccc(N(C)C)cc3)C(OC(=O)Nc3ccc(N(C)C)cc3)C2N)cc1.O=C(O)C(F)(F)F.O=C(O)C(F)(F)F.O=C(O)C(F)(F)F.O=C(O)C(F)(F)F.O=C(O)C(F)(F)F.O=C(O)C(F)(F)F.O=C(O)C(F)(F)F.O=C(O)C(F)(F)F.O=C(O)C(F)(F)F.O=C(O)C(F)(F)F.O=C(O)C(F)(F)F.O=C(O)C(F)(F)F.O=C(O)C(F)(F)F (stereo not drawn) [Compound 4]	32	>256	16	128	>256	128	128	256	8	8	128	16	64	–
NCC1OC(OC2C(N)CC(N)C(OC3OC(COC(=O)Nc4ccccc4)C(OC(=O)Nc4ccccc4)C(N)C3OC(=O)Nc3ccccc3)C2OC(=O)Nc2ccccc2)C(OC(=O)Nc2ccccc2)C(OC(=O)Nc2ccccc2)C1OC(=O)Nc1ccccc1.O=C(O)C(F)(F)F.O=C(O)C(F)(F)F.O=C(O)C(F)(F)F.O=C(O)C(F)(F)F (stereo not drawn) [Compound 5]	64	>256	32	>256	>256	>256	>256	>256	4	8	>256	32	>256	–
CCCCCCNC(=O)OCC1OC(OC2C(N)CC(N)C(OC3OC(CN)C(OC(=O)NCCCCCC)C(OC(=O)NCCCCCC)C3OC(=O)NCCCCCC)C2OC(=O)NCCCCCC)C(OC(=O)NCCCCCC)C(N)C1OC(=O)NCCCCCC.O=C(O)C(F)(F)F.O=C(O)C(F)(F)F.O=C(O)C(F)(F)F.O=C(O)C(F)(F)F (stereo not drawn) [Compound 6]	128	>256	32	128	>256	32	64	>256	16	32	128	64	64	–
NC[C@@H]1O[C@H](O[C@H]2[C@@H](O)[C@H](O[C@@H]3[C@@H](O)[C@H](N)C[C@H](N)[C@H]3O[C@H]3O[C@H](CN)[C@@H](O)[C@H](O)[C@H]3N)O[C@@H]2CO)[C@H](N)[C@@H](O)[C@@H]1O [Neomycin B, reference compound]	32	64	1	4	1	512	8	>512	0.25	0.5	512	256	–	–
